In ChEMBL document CHEMBL1201862, “PubChem BioAssay data set” (2004):
Structures can show the parent of a compound that is named as a salt.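 In this assay, cells in 96-well plates receive the compound at five concentrations for 48 hours. Endpoints are linearly interpolated between the surrounding concentrations. The concentration for 50% growth inhibition is given as GI50.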 Activity calls are given as the source filed them. No stated cut-off is given here; in the data, active = GI50 up to about 1.1 µM and inactive = higher.

Tests used:
Test in all cases: NCI tumour cell line growth inhibition, 48 h
[1] = tested on: BT-549
[2] = tested on: CCRF-CEM
[3] = tested on: HCT-15
[4] = tested on: HL-60
[5] = tested on: HOP-92
[6] = tested on: KM12
[7] = tested on: MDA-MB-231
[8] = tested on: MOLT-4
[9] = tested on: NCI-H460
[10] = tested on: NCI/ADR-RES
[11] = tested on: OVCAR-3
[12] = tested on: OVCAR-5
[13] = tested on: PC-3
[14] = tested on: SF-268
[15] = tested on: SK-MEL-2
[16] = tested on: SK-MEL-5
[17] = tested on: SN12C
[18] = tested on: SR
[19] = tested on: SW-620
[20] = tested on: UO-31

Compound | GI50 [1] | GI50 [2] | GI50 [3] [µM] | GI50 [4] | GI50 [5] | GI50 [6] | GI50 [7] | GI50 [8] | GI50 [9] | GI50 [10] | GI50 [11] | GI50 [12] | GI50 [13] | GI50 [14] | GI50 [15] | GI50 [16] | GI50 [17] | GI50 [18] | GI50 [19] | GI50 [20]
O=C1C(CN2CCOCC2)CCCC1CN1CCOCC1 (stereo not given) | 1.96 µM (inactive) | 0.76 µM (active) | 1.09 | 0.787 µM (active) | 0.92 µM (active) | 5.98 µM (inactive) | 5.97 µM (inactive) | 0.861 µM (active) | 24.6 µM (inactive) | 2.18 µM (inactive) | 3.1 µM (inactive) | 18.6 µM (inactive) | 15.6 µM (inactive) | 9.77 µM (inactive) | 8.36 µM (inactive) | 11.1 µM (inactive) | 4.01 µM (inactive) | 5.31 µM (inactive) | 0.436 µM (active) | 9.73 µM (inactive)
CCOC(=O)c1c(OCC)[nH]c(=O)c(C(c2ccc(F)cc2)c2c(O)c(C(=O)OCC)c(OCC)[nH]c2=O)c1O | 9.71 µM (inactive) | 33.1 µM (inactive) | 18.4 | 17.2 µM (inactive) | 1.46 µM (inactive) | 16.9 µM (inactive) | 12.6 µM (inactive) | 20.1 µM (inactive) | 16.4 µM (inactive) | 24.1 µM (inactive) | 15.4 µM (inactive) | 29 µM (inactive) | 15.3 µM (inactive) | 14.6 µM (inactive) | 16.6 µM (inactive) | 12.8 µM (inactive) | 14.7 µM (inactive) | 10.5 µM (inactive) | 17.3 µM (inactive) | 12.8 µM (inactive)
COc1ccc(/C=C(/c2ccccc2)c2c(C)cc(C)c(/C(=C\c3ccc(OC)cc3)c3ccccc3)c2/N=N/c2cc(C)cc(C)c2)cc1 | 45.3 µM (inactive) | 8.49 µM (inactive) | > 66.1 | 10.3 µM (inactive) | 33.6 µM (inactive) | 9.64 µM (inactive) | 6.76 µM (inactive) | 15.7 µM (inactive) | 15.5 µM (inactive) | > 100 µM (inactive) | 4.1 µM (inactive) | > 84.5 µM (inactive) | 9.89 µM (inactive) | 39.9 µM (inactive) | 7.74 µM (inactive) | 17.6 µM (inactive) | 8.47 µM (inactive) | 63.5 µM (inactive) | 13.5 µM (inactive) | > 67.5 µM (inactive)
COc1ccc(/C=C2\CCC(CNc3cc(C)on3)C2=O)cc1 (stereo not given) | > 78.3 µM (inactive) | > 100 µM (inactive) | > 100 | > 21.5 µM (inactive) | > 100 µM (inactive) | > 100 µM (inactive) | > 82 µM (inactive) | > 100 µM (inactive) | > 78.5 µM (inactive) | > 54 µM (inactive) | > 100 µM (inactive) | > 100 µM (inactive) | > 100 µM (inactive) | > 70 µM (inactive) | > 79.3 µM (inactive) | > 100 µM (inactive) | > 100 µM (inactive) | > 100 µM (inactive) | > 100 µM (inactive) | > 93.1 µM (inactive)
O=C(O)CCCN/C(=C1\C(=O)C(=O)N(c2ccccc2)C1=O)c1ccccc1 | > 100 µM (inactive) | > 100 µM (inactive) | > 100 | > 100 µM (inactive) | > 100 µM (inactive) | > 100 µM (inactive) | > 100 µM (inactive) | > 100 µM (inactive) | > 100 µM (inactive) | > 100 µM (inactive) | > 100 µM (inactive) | > 100 µM (inactive) | > 100 µM (inactive) | > 100 µM (inactive) | > 100 µM (inactive) | > 100 µM (inactive) | > 100 µM (inactive) | 20 µM (inactive) | > 100 µM (inactive) | > 100 µM (inactive)
CC/C=C/C(/C=C/C[C@]1(CC)C[C@H](CC)[C@H](CC(=O)O)OO1)CC (stereo not given in full) | 6.28 µM (inactive) | 0.492 µM (active) | 2.61 | 2.16 µM (inactive) | 1.99 µM (inactive) | 1.62 µM (inactive) | 4.88 µM (inactive) | 2.31 µM (inactive) | 1.96 µM (inactive) | 2.1 µM (inactive) | 2 µM (inactive) | 2.34 µM (inactive) | 1.67 µM (inactive) | 3.58 µM (inactive) | 4.01 µM (inactive) | 2.85 µM (inactive) | 5.65 µM (inactive) | 0.421 µM (active) | 2.12 µM (inactive) | 0.494 µM (active)
C=CC1(CC[C@]2(c3ccc(OC)c(OC)c3)C=[N+]([O-])O[C@H](O[C@@H]3CCCC[C@H]3C(C)(C)c3ccccc3)C2)OCC(C)(C)CO1 | 21 µM (inactive) | 4.18 µM (inactive) | 8.2 | 1.97 µM (inactive) | 13.5 µM (inactive) | 14.3 µM (inactive) | 13.5 µM (inactive) | 3.78 µM (inactive) | 16.5 µM (inactive) | 10.7 µM (inactive) | 6.59 µM (inactive) | 16.4 µM (inactive) | 7.23 µM (inactive) | 7.13 µM (inactive) | 12.6 µM (inactive) | 14.7 µM (inactive) | 10.8 µM (inactive) | > 19.9 µM (inactive) | 22.5 µM (inactive) | 11.5 µM (inactive)
N[C@@H](Cc1ccc(N(CCCl)CCCl)cc1)C(=O)O [MELPHALAN HYDROCHLORIDE] | 38 µM (inactive) | 2.85 µM (inactive) | 39.4 | 2.51 µM (inactive) | 36.8 µM (inactive) | 71.1 µM (inactive) | 48.6 µM (inactive) | 2.79 µM (inactive) | 7.35 µM (inactive) | 40.7 µM (inactive) | 42.3 µM (inactive) | 47.4 µM (inactive) | 37.4 µM (inactive) | 19.9 µM (inactive) | 56.2 µM (inactive) | 38.3 µM (inactive) | 14.5 µM (inactive) | 1.71 µM (inactive) | 33.6 µM (inactive) | 48 µM (inactive)
